Measurements published in publication PMC5104426, “Screening a Phage Display Library for Two Novel OmpU-Binding Peptides with Adhesion Antagonistic Activity against Vibrio mimicus” (PLoS ONE, 2016).
“And” between values parts separate entries of the source, which are not always exact repeats. Identical values can stand only once.

What was measured:
[1] = test system: rOmpU fusion protein adhesion to EPC cells; test: Fluorescence-based adhesion assay: rOmpU protein adhesion to EPC cells; format: cell-based, Vibrio mimicus; settings: 500 μg/mL peptide mixed with equal volume of 500 μg/mL rOmpU, 1 h 28°C, then 1 h on fixed EPC cells; anti-OmpU/FITC immunofluorescence; triplicate
Experimental: Synthetic OmpU-binding peptides were measure for their ability to antagonize OmpU protein adhesion to EPC cells by fluorescence-based adhesion assay. Briefly, EPC cells (1 × 10^6 cells/mL) were seeded in 24-well cell plate containing coverslip (Corning, NY, USA) and cultured to 80% confluence. The cells were gently washed 3 times with PBS and fixed with 4% paraformaldehyde at room temperature for 15 min. After 3 washes with PBS, cells were permeabilized with 0.5% Triton X-100 (500 μL/well) for 15 min. The cells were then washed 3 times with PBS and blocked with 2% BSA for 30 min. Subsequently, 500 μg/mL of each OmpU-binding peptide or irrelevant control peptide (used as negative control) solution were respectively mixed with an equal volume of 500 μg/mL rOmpU fusion protein, and the mixture was incubated for 1 h at 28°C and added to each well. The plates were incubated for 1 h at 28°C. After 3 washes, purified rabbit anti-OmpU antibody (prepared in our previous studies) at a dilution of 1:200 in PBS was added to each well and incubated for 1 h at 28°C, followed by 3 washes in PBS. A 1:100 dilution of FITC (fluorescein isothiocyanate)-labeled goat anti-rabbit IgG (Jackson ImmunoResearch Laboratories, Inc., USA) was added to each well and incubated in the dark for 1 h. After 3 washes in PBS, 4,6-Diamidino-2-phenylindole dihydrochloride (DAPI; Ziyi Reagent Co., Shanghai, China) was used to stain the nucleus, and the coverslips were observed under a fluorescence microscope. Each experiment was performed in triplicate, each sample being tested in three wells.

[2] = test system: V. mimicus 04–14 isolate; test: Protective effects on grass carps challenged with V. mimicus; format: in vivo, Vibrio mimicus; settings: for Mortality rate / Survival rate: n = 10, 7 days; for No. of dead fish post challenge, 2d: n = 10, day 2; for No. of dead fish post challenge, 3d: n = 10, day 3; for No. of dead fish post challenge, 4d: n = 10, day 4; for No. of dead fish post challenge, 5d: n = 10, day 5; for No. of dead fish post challenge, 6d: n = 10, day 6; for No. of dead fish post challenge, 7d: n = 10, day 7; for No. of dead fish: n = 10, total over 7 days; for No. of dead fish post challenge, 1d: n = 10, day 1
Experimental: Healthy grass carps weighting 50–52 g were purchased from a commercial fish farm in Anhui province of China, and then were maintained in a flow-through water system at a temperature of 25 ± 1°C and fed commercial pellets on a daily basis. After 14 days when grass carps were confirmed to be healthy, the water temperature was increased to 28 ± 1°C slowly, and the experiment began.
The experimental grass carps were randomly divided into 9 groups (named A-I group, n = 10 in each group). Groups A-C were injected intraperitoneally with P1 at a dose of 10 mg/kg/d, 20 mg/kg/d and 30 mg/kg/d, respectively; Groups D-F were given the same dosages of P2, respectively; Group G was given with 30 mg/kg/d of unrelated control peptide. After 3 days of continuous peptides injection, each fish in groups A-G was challenged intraperitoneally with 200 μL PBS containing 6 × 10^6 cells of V.mimicus 04–14 isolate (equal to the minimal lethal dose determined by preliminary test), respectively. Group H (infection control group) was only inoculated with 04–14 isolate at the minimal lethal dose; Group I (negative control group) was only inoculated with 0.65% sterile saline. Survival of the fish was monitored every 12 h for 7 days post-challenge. At the end of the 7 day observation period, all surviving fish were euthanized in a solution of 200 mg/L of MS-222 followed by a blow to the head.
The survival experiment was performed in accordance with the practices reported in recent studies on antibacterial efficacy of peptides in vivo, protective efficacy of vaccine and bacterial virulence. Death was used as an endpoint in these studies (with no indication of use of humane euthanasia). In animal toxicity and efficacy assays of the adhesion antagonistic peptides, we used death as the endpoint as early, reliable and unbiased biomarkers that can be used as indicators of disease severity are lacking. There is difficulty in reliably differentiating fish that will die from those which will recover, despite showing clinical signs precluding use of humane euthanasia. In addition, interpretation of clinical signs can itself be subjective in the absence of quantifiable indicators of disease severity. For these reasons, the ethical committee of Anhui Agricultural University has assessed the possibility of deaths in the animal toxicity and efficacy assays and also allowed probably unavoidable animal deaths.

[3] = test system: V. mimicus 04–14 isolate adhesion to EPC cells; test: Peptide adhesion inhibition test: V. mimicus adhesion to EPC cells; format: cell-based, Vibrio mimicus; settings: 500 μg/mL peptide mixed with equal volume of V. mimicus 04–14 (2 × 10^7 CFU/mL), 1 h 28°C, then 1 h on EPC cells, crystal violet, 30 cells counted, mean ± SD, triplicate
Experimental: When EPC cells grown in 24-well plate containing coverslips formed a confluent monolayer, the medium was changed to RPMI-1640 medium without serum and antibiotics for 2 h. Subsequently, 500 μg/mL of each OmpU-binding peptide or unrelated control peptide solution were respectively mixed with an equal volume of V. mimicus isolate 04–14 suspension (2 × 10^7 CFU/mL) and incubated for 1 h at 28°C. The mixture was added to each well, and then the plates were incubated for 1 h at 28°C. After 3 times washes, EPC cells were fixed with cooled methanol for 10 min, stained with crystal violet and examined under a light microscope at a magnification of ×1,000. Thirty cells were randomly selected to count the number of adhering bacterial per slide. Each experiment was performed in triplicate, with each sample being repeated in 3 cell wells.

[4] = 10 mg/kg/d i.p. for 3 days before challenge
[5] = 10 mg/kg/d i.p. for 3 days before i.p. challenge with 6 × 10^6 cells
[6] = 20 mg/kg/d i.p. for 3 days before challenge
[7] = 30 mg/kg/d i.p. for 3 days before challenge

Row | Sequence | green fluorescence on the surface of EPC cells (surface-retained rOmpU) [1] | Mortality rate [2, 4] [%] | Survival rate [2, 4] [%] | No. of dead fish post challenge, 2d [2, 4] | No. of dead fish post challenge, 3d [2, 4] | No. of dead fish post challenge, 4d [2, 4] | No. of dead fish post challenge, 5d [2, 4] | No. of dead fish post challenge, 6d [2, 4] | No. of dead fish post challenge, 7d [2, 4] | No. of dead fish [2, 4] | No. of dead fish post challenge, 1d [2, 5] | Mortality rate [2, 6] [%] | Survival rate [2, 6] [%] | No. of dead fish post challenge, 1d [2, 6] | No. of dead fish post challenge, 2d [2, 6] | No. of dead fish post challenge, 3d [2, 6] | No. of dead fish post challenge, 4d [2, 6] | No. of dead fish post challenge, 5d [2, 6] | No. of dead fish post challenge, 6d [2, 6] | No. of dead fish post challenge, 7d [2, 6] | also measured
1 | TWTCSDVICTAR [P1, adhesion antagonistic peptide] | little or no green fluorescence | 90 | 10 | 5 | 2 | 2 | 0 | 0 | 0 | 9 | 0 | 80 | 20 | 0 | 4 | 2 | 2 | 0 | 0 | 0 | No. of dead fish [2, 6]: 8; Mortality rate [2, 7]: 60%; Survival rate [2, 7]: 40%; No. of dead fish post challenge, 1d [2, 7]: 0; No. of dead fish post challenge, 2d [2, 7]: 2; No. of dead fish post challenge, 3d [2, 7]: 3; No. of dead fish post challenge, 4d [2, 7]: 1; No. of dead fish post challenge, 5d [2, 7]: 0; No. of dead fish post challenge, 6d [2, 7]: 0; No. of dead fish post challenge, 7d [2, 7]: 0; No. of dead fish [2, 7]: 6; average number of adhesion around each cell [3]: 5.1 ± 0.7 and 5.1 ± 0.6
2 | SCTSPHCFMWLP [P2, adhesion antagonistic peptide] | little or no green fluorescence | 80 | 20 | 4 | 3 | 1 | 0 | 0 | 0 | 8 | 0 | 60 | 40 | 0 | 2 | 3 | 1 | 0 | 0 | 0 | No. of dead fish [2, 6]: 6; Mortality rate [2, 7]: 40%; Survival rate [2, 7]: 60%; No. of dead fish post challenge, 1d [2, 7]: 0; No. of dead fish post challenge, 2d [2, 7]: 2; No. of dead fish post challenge, 3d [2, 7]: 2; No. of dead fish post challenge, 4d [2, 7]: 0; No. of dead fish post challenge, 5d [2, 7]: 0; No. of dead fish post challenge, 6d [2, 7]: 0; No. of dead fish post challenge, 7d [2, 7]: 0; No. of dead fish [2, 7]: 4; average number of adhesion around each cell [3]: 3.4 ± 0.8
